In US8586043B2, “Methods for treating breast cancer with inhibitors of neurotensin activation of NTSR1” (INSERM ( Institut National de la Sante et de la Recherche …, priority 2009, dated 2013):

Tested on: NTS gene
Experiment: NTS transcript RT-PCR in HBEC after hormonal treatment
Format: cell-based, human
Settings: 1 μM ICI 182780 added concomitantly to 10 nM estradiol, 48 h
Method: A) Left, one μg of total RNA from HBEC or whole gland were reverse-transcribed and a PCR experiment specific for NTS was performed. Right, one μg of total RNA from HBEC cells (control, treated with 10 nM estradiol (E2) with or without 1 μM ICI 182780) was reverse-transcribed. A PCR experiment was performed using specific primers for NTS and GAPDH.
The protocols for total RNA extraction, reverse-transcription reaction (RT), and PCR are documented in Souaze et al (Souaze F, Rostene W, Forgez P (1997) J. Biol. Chem. 272:10087-10094). RT was performed on 1 μg of total RNA using a specific NTSR1 primer (5′-[…]-3′ SEQ ID NO:3) or 50 pmol of oligo dT and oligo dN. The PCR amplification was performed on a 1:5 v/v of the RT reaction using 25 pmol of each primer 5′-[…]-3′ SEQ ID NO:4 and 5′-[…]-3′ SEQ ID NO:5 for NTSR1, and 5′-[…]-3′ SEQ ID NO:6 and 5′-[…]-3′ SEQ ID NO:7 for NTS, and 1 unit of Taq polymerase (Applied Biosystems, Courtaboeuf, France). The amplification profile consisted of denaturation at 94° C. for 30 s, annealing at 57° C. for 45 s, and extension at 72° C. for 45 s. The PCR cycle were preceded by denaturation at 95° C. for 15 min and were followed by a final extension at 72° C. for 7 min.
HBEC were synchronized for 40 h in Ham F10 phenol red free medium containing 20 μM lovastatin. Synchronization was stopped by adding 2 mM mevalonate to the hormone-containing medium. […]

C[C@]12CC[C@@H]3c4ccc(O)cc4C[C@@H](CCCCCCCCC[S+]([O-])CCCC(F)(F)C(F)(F)F)[C@H]3[C@@H]1CC[C@@H]2O (stereo partly shown) [ICI 182780]
effect on the estradiol-induced enhancement of NTS transcripts: abolished
